Entries after “also recorded” stand apart in the source; their conditions may differ.
Key:
[1] = test system: rat removed basilar artery; experiment: Vasoconstrictor action of rat removed basilar artery; conditions: 3 μM (FIG. 3, FIG. 4)
Description: Basilar arteries were removed from male rat (CD(SD)IGS, male, Charles River Japan, Inc., 8 weeks old-10 weeks old, 350-450 g) and quickly immersed in cooled Krebs-Henseleit solution. Removed basilar arteries were divided by about 3 mm width with ophthalmic scissors and made as ringed samples. Samples hung in micro tissue organ bath (MTOB-1: Preimetech Corp.) filled with Krebs-Henseleit solution (37° C.). They were loaded with about 0.2 g resting tension stabilized for about 60 minutes, and then constrictive movement was recorded on a recorder (linearcoda WR3320: Graphtec Corp.) through strain compression amplifier (AP-601G, Nihon Kohden) from micro tissue organ bath.

removed rat heart = experiment: Removed rat heart (Langendorff heart); conditions: Langendorff heart mode
From the text: Rat (CD(SD)IGS, male, Charles River Japan Inc., 8 weeks old-10 weeks old, 300-450 g) was anesthetized by diethylether, opened the abdominal cavity, injected intravenously with heparin and then, exsanguinated to death. The heart was quickly removed by opening the chest cavity and the removed heart was immersed into cooled Krebs-Henseleit solution. The tissues were trimmed away under the cooling, aortic arches were inserted into the heart functional measuring equipment and fixed with sutures without leaking out. The rat heart function was measured using the heart functional measuring equipment (model IPH-W2, Labo-support). The equipment was used in the Langendorff Heart mode (non-working heart mode) and load was 68-70 mmHg. […] Catheter filled with physiological saline was inserted into the left ventricle, the catheter was connected to the piezotransducer (DX-100, Nihon Kohden) and the left ventricle pressure (LVP) was measured through strain compression amplifier (AP-601G, Nihon Kohden). Heart rate was calculated using LVP data with the heart rate measuring equipment (AT-601G, Nihon Kohden) and dLVP/dt was calculated with differential processor (EQ-641G, Nihon Kohden). Probes of electromagnetic flowmeter (model FF-020T, inside diameter 2 mm, Nihon Kohden) were set on the way to the passage of nutrient solution and the flow rate of nutrient solution (corresponding the blood flow rate of coronary artery) was measured using electromagnetic flowmeter (MFV-3100, Nihon Kohden). Administration of S1P and the compounds was performed by injection of dilution with nutrient solution into the passage of nutrient solution using infusion pump. The injection rate of drug solution was set as the flow rate of nutrient solution before starting of administration. […] Using the above mentioned model, effect of EDG-5 antagonist on heart function was examined. […] EDG-5 antagonist, the compound (1), the compound (2) and the compound (3) increased the flow rate of nutrient solution. In addition, they increased contractive force of heart muscle at the same time. […] It was considered that S1P had no direct chronotropic action and inotropic action on pacemaker and heart muscle and S1P had lowering effect on heart function by contracting the coronary blood vessels and ischemia.

Compound: Cc1nn(C)c2nc(NNC(=O)Nc3cc(Cl)nc(Cl)c3)cc(C(C)C)c12 [compound (3), N-(2,6-dichloro-4-piridinyl)-2-(4-isopropyl-1,3-dimethyl-1H-pyrazolo[3,4-b]pyridin-6-yl)hydrazinecarboxamide]
- inhibitory effect on vasoconstrictor action of rat removed basilar artery by S1P [1]: inhibitory effect; also recorded: suppression
- flow rate of nutrient solution (corresponding the blood flow rate of coronary artery) (removed rat heart): increased
- contractive force of heart muscle (removed rat heart; EDG-5 antagonist): increased

Reference: patent publication US8765783B2, “Pharmaceutical composition for treatment of disease due to vascular constriction or vasodilation” (Ono Pharmaceuticals Co., Ltd., priority 2002, dated 2014)
